This is an account of results in patent US11529359B2, “Use of GABAA receptor modulators for treatment of itch” (UNIVERSITÄT ZÜRICH, priority 2016, dated 2022).

SMILES strings stand for the structures.

Data set [1] has as its system benzodiazepine binding site of GABAARs. Kind of data set: α-methyl 5-HT-induced itch in HRRR mice (α2, α3, α5 GABAARs benzodiazepine-insensitive). Format: in vivo. The settings on record: 1 mg/kg p.o.; 20 μg α-methyl 5-HT. On the procedure:
(§1) Acute itch was assessed in mice that received intradermal microinjections of pruritogens or 0.9% saline into the right cheek, which had been shaved at least one day before the experiment. In two sets of experiments that addressed the contribution of GABAARs in primary and secondary pruritoceptors, pruritogens were injected in the right thigh (FIG. 17). Before injection, mice were acclimatized to a 15 cm diameter cylindrical enclosure for more than 30 min with cage bedding on the ground. Background white noise generated by a radio in the room at ambient volume was applied to prevent auditory distraction. A 30 gauge needle was inserted bevel-up and pushed 5 mm horizontally into the skin beyond the point of insertion, before injection of the pruritogen (in a total volume of 10 μl). No anesthesia was used. Correct injection was confirmed by the appearance of a slightly domed bulla upon injection. […] Videos were analyzed off-line. Scratching of the hind paw directed to the ipsilateral cheek was counted in bouts, with one scratching bout defined as an instance when the mouse lifted its paw to scratch until it returned the paw to the cage floor. In case of experiments in which the pruritogen was injected in the skin of the thigh, the time spent biting the injected skin area was counted in s/min as a measure of itch.

The subject of a further data set is locomotor activity. Kind of data set: open field test, locomotor activity / sedation. Format: in vivo, wild-type mice. How it is done:
After injection, the mice were placed in an open field arena and their activity was recorded for one hour starting one hour after injection.
(§2) Locomotor activity, muscle relaxant effects and motor coordination were assessed as described previously (Ralvenius, W. T., Benke, D., Acuña, M. A., Rudolph, U. & Zeilhofer, H. U. Nature Communications, 2015, 6). […] Motor coordination was assessed with a rotarod accelerating from 4 rpm to 40 rpm within 5 min. […] Fifteen measurements were taken per mouse. To assess muscle relaxation, mice were placed with their forepaws onto a metal horizontal wire placed 20 cm above ground.

For another data set, the system named is α2GABAARs. The experiment in a line: chloroquine-induced biting (thigh injection) in hoxB8-α2−/−, α2fl/fl and α2 (H→R) mice. The settings on record: 1 mg/kg p.o., 100 μg chloroquine thigh. In kind it is in vivo. How it is done:
as §1

In the next data set the target is T1, α1 GABAARs (Homo sapiens, UniProt P14867+P18507).
T1 construct: expressed in transfected cells; host or cells: HEK293 cells (ATCC), transient transfection
T1 sequence (P14867 28-456): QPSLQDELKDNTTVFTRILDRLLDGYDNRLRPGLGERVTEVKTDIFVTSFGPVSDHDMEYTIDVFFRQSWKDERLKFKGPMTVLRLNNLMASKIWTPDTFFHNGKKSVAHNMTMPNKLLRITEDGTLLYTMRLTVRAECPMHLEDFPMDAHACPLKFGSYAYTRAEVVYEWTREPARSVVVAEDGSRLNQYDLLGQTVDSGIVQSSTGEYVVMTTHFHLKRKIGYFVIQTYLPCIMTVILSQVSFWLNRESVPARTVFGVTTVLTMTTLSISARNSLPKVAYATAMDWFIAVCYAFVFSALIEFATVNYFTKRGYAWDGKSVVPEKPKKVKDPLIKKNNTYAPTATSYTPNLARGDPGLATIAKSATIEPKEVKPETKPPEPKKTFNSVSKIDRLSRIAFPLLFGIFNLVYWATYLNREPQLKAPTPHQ
T1 sequence (P47870 25-512 partner limits assumed): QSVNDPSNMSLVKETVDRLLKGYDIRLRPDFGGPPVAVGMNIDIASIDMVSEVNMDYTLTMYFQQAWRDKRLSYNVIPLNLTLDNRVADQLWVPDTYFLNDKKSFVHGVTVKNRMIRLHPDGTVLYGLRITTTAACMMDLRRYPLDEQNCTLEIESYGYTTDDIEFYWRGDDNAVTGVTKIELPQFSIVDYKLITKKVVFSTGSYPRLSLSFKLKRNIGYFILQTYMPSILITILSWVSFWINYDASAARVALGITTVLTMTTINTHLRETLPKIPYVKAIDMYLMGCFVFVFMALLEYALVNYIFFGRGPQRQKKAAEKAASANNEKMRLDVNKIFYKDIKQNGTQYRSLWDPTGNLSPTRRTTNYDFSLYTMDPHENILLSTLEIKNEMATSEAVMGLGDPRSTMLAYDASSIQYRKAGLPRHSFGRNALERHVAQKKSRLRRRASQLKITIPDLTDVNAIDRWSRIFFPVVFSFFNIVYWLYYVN
T1 sequence (P18507 40-467 limits assumed): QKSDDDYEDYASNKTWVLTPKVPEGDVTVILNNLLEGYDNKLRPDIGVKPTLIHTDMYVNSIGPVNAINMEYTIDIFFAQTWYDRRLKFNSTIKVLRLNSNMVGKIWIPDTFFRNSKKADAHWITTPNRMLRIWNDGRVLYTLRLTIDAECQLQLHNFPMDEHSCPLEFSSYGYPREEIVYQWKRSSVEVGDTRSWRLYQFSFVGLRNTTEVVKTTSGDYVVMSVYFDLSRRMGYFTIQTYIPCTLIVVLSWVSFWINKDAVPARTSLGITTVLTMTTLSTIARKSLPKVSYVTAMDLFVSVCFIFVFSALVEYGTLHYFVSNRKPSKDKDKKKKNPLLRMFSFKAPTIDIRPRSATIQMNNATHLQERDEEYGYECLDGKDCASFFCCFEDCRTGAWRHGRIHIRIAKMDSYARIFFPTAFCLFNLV
Kind of data set: GABA-evoked currents, recombinant GABAARs in HEK293 cells (α1). In kind it is cell-based. The settings on record: HEK293 cells transiently transfected. From the text:
(§3) HEK293 cells were transfected using lipofectamine LTX (Dugue, G. P., et al. Neuron, 2009, 61, 126-139). To ensure expression of the γ2 subunit (required for modulation of GABAARs by BDZs) in all recorded cells, the inventors transfected cells with a plasmid expressing the γ2 subunit plus eGFP from an IRES, and only selected eGFP-positive cells for recordings. The transfection mixture contained (in μg): 1 α1, 1 β2, 3 γ2/eGFP (used as a marker of successful transfection) or 1 αx, 1 β3, 3 γ2/eGFP in case of α2, α3, or α5GABAARs. Recordings were made 18-36 hrs after transfection. Whole-cell patch-clamp recordings of GABA-evoked currents were made at room temperature (20-24° C.) and at a holding potential of −60 mV. Recording electrodes were filled with solution containing (in mM): 120 CsCl, 10 EGTA, 10 HEPES (pH 7.40), 4 MgCl2, 0.5 GTP and 2 ATP. The external solution contained (in mM): 150 NaCl, 10 KCl, 2.0 CaCl2, 1.0 MgCl2, 10 HEPES (pH 7.4), and 10 glucose. GABA was applied to the recorded cell using a manually controlled pulse (4-6 s) of a low sub-saturating GABA concentration (ECS). ECs values of GABA were determined for all subunit combinations analyzed. […] Imax was determined as the average maximal current elicited by a concentration of 1 mM GABA. […]

For data set [2], the system named is chloroquine-induced itch. The experiment in a line: chloroquine-induced itch (cheek injection) in wild-type mice. The settings on record: p.o.; wild-type mice; 100 μg chloroquine. In kind it is in vivo, wild-type C57BL6/J mice. How it is done: as §1
For data set [3], the target named is T2, α2GABAARs with H→R point mutation in the α2 subunit (Homo sapiens, UniProt P18507+P47869, H129R).
T2 construct: expressed in transfected cells; host or cells: HEK 293 cells, transient transfection
T2 sequence (P47869 29-451 H129R): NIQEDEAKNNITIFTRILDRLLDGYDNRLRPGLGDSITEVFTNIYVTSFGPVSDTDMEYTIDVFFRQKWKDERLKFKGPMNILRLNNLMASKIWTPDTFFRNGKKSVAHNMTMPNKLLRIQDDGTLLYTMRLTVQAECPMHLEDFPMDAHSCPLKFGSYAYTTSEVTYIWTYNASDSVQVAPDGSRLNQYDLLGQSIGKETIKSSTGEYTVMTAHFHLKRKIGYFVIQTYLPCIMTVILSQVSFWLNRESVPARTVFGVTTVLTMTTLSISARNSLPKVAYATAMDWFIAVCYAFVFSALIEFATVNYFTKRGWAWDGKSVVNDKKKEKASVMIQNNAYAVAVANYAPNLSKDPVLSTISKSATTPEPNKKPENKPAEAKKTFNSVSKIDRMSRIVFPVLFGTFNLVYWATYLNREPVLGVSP
T2 sequence (P28472 26-473 partner): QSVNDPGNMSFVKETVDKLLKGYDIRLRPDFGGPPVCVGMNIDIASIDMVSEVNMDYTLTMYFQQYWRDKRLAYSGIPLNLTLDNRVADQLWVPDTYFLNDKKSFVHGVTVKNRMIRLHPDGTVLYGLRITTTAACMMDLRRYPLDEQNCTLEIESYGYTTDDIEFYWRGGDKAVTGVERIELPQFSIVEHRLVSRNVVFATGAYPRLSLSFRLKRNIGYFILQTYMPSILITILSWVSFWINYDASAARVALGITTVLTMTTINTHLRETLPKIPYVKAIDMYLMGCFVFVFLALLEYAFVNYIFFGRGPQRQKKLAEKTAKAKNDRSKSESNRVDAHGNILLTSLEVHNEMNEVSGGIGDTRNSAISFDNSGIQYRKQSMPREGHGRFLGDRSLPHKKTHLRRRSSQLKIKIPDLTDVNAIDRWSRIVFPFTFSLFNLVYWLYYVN
T2 sequence (P18507 40-467 limits assumed): as the sequence (P18507 40-467 limits assumed) above
The experiment in a line: positive allosteric modulation of H→R point-mutated α2GABAARs in HEK 293 cells. Format: cell-based. The settings on record: 1 μM.
Text: as §3

Another data set deals with T3, α3 GABAARs (Homo sapiens, UniProt P18507+P34903).
T3 construct: expressed in transfected cells; host or cells: HEK293 cells (ATCC), transient transfection
T3 sequence (P34903 29-492): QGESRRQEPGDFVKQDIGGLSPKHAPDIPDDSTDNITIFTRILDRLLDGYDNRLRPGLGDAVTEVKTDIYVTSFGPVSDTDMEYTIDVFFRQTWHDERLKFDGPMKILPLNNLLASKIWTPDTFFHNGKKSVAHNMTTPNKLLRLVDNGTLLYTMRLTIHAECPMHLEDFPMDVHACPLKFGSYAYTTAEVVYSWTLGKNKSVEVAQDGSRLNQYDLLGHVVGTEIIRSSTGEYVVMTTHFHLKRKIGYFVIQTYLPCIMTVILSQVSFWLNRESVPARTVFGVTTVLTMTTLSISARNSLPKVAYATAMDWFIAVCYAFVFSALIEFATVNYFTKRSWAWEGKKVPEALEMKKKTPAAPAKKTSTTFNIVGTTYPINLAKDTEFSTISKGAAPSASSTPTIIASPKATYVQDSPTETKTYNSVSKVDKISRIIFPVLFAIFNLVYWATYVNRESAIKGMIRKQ
T3 sequence (P28472 26-473 partner): as the sequence (P28472 26-473 partner) above
T3 sequence (P18507 40-467 limits assumed): as the sequence (P18507 40-467 limits assumed) above
Kind of data set: GABA-evoked currents, recombinant GABAARs in HEK293 cells (α3). Format: cell-based. The note with it: HEK293 cells transiently transfected.
Text: as §3

For a further data set, the system named is histamine-induced itch. The experiment in a line: histamine-induced itch (cheek injection) in wild-type mice. Format: in vivo, wild-type C57BL6/J mice. The note with it: per oral 0.01, 0.03, 0.1, 1 and 3 mg/kg 90 min before 100 μg histamine; 30 min. How it is done:
as §1

Data set [4] relates to brain membranes prepared from α1,2,3,5 H→R point mutated mice. In kind it is binding, mice (RRRR). The settings on record: 4 nM [3H]Ro 15-4513; increasing concentrations; n=4. On the procedure:
The supernatant was centrifuged for 20 min at 30,000 g and the resulting crude membrane pellet was washed once with buffer. […] Non-specific [^3H]Ro 15-4513 binding was assessed by addition of 10 μM flumazenil to the reaction. Incubation was stopped by rapid vacuum filtration using a semiautomatic cell harvester (Skatron Instruments) and washed filters were subjected to liquid scintillation counting.

The next data set deals with GABAARs. Kind of data set: recombinant GABAARs in HEK293 cells, direct activation in the absence of GABA. In kind it is cell-based.
Text: as §3

The subject of the next data set is α-Me-5HT-induced itch. The experiment in a line: α-methyl 5-HT-induced itch (cheek injection) in wild-type mice. Format: in vivo, wild-type mice (129X1/SvJ). The note with it: 1 mg/kg p.o.; 20 μg α-methyl 5-HT.
In data set [5] the test system is chloroquine-induced itch. The experiment in a line: chloroquine-induced itch (thigh injection), intrathecal drug, wild-type mice. The note with it: 0.3 mg/kg intrathecal; 100 μg chloroquine into right thigh. Format: in vivo. On the procedure: as §1
Another data set has as its system muscle relaxation. Kind of data set: horizontal wire test (muscle relaxation). In kind it is in vivo, mice. The settings on record: p.o., 60-120 min after administration. How it is done:
as §2

With `CC(C)(O)c1cnn2c(-c3ccc(F)c(-c4c(F)cccc4C#N)c3)cnc2n1` [TPA023B, 6,2′-difluoro-5′-[3-(1-hydroxy-1-methylethyl)imidazo[1,2-b][1,2,4]triazin-7-yl]biphenyl-2-carbonitrile], the “antipruritic action in HRRR mice” value in [1] was “completely lost its antipruritic action”. Besides, in the data set with locomotor activity (1 and 3 mg/kg p.o.), the “locomotor activity in the open field test” value is “increased locomotor activity”. Moreover, the sedative effects entry in the data set with locomotor activity (doses up to 3 mg/kg (p.o.)) was “did not show sedative effects”. In addition, the “activity in open field arena vs vehicle” value with locomotor activity (per oral 10 mg/kg and 30 mg/kg, recorded 1-2 h after injection) was “significant increase in activity”. In addition, in the data set on α2GABAARs, the “biting responses, hoxB8-α2−/− mice vs global α2R/R mice” value is given as “No significant difference”. Besides, the “biting responses in treated mice compared between genotypes” value with α2GABAARs (hoxB8-α2−/−, α2fl/fl and α2 (H→R) mice) is listed as “differed significantly between genotypes”. The “potentiation of GABA-induced currents” value on α1 GABAARs is reported as “did not potentiate GABA-induced currents”. For the same compound, the “doses at which chloroquine-induced scratching behavior was reduced” value in the data set with chloroquine-induced itch [2] is listed as 0.03 mg/kg. Moreover, the “positive allosteric modulation of H→R point-mutated α2GABAARs” value in [3] is on record as “abolished”. At α3 GABAARs, the “activity at the benzodiazepine binding site (potentiation of GABA-induced currents)” value is reported as “partial agonistic activity”. In the data set on histamine-induced itch, the “scratching bouts, histamine-induced itch” value is reported as “dose-dependent reduction of scratching bouts”. Further, the “displacement of [3H]Ro 15-4513 binding” value in data set [4] was “failed to displace”. Further, the “activation of GABAARs in the absence of GABA” value with GABAARs is on record as “did not activate”. For the same compound, in the data set on α-Me-5HT-induced itch, the “antipruritic action in wild-type mice” value is “strong antipruritic actions”. Besides, the “antipruritic action after intrathecal injection (biting time, scratching bouts 0-10 min)” value in the data set on chloroquine-induced itch [5] was “antipruritic action”. Besides, in the data set on muscle relaxation, the “muscle relaxation in the horizontal wire test” value is on record as “did not cause muscle relaxation”.
